Data as given in US20220119354A1, “DIAMINO-SUBSTITUTED PYRIDINES AND PYRIMIDINES AS HERBICIDES” (FMC Corporation, priority 2019, published 2022).

Columns and labels:
Type in all cases: in vivo
[1] = tested on: barnyardgrass (Echinochloa crus-galli); experiment: Test A preemergence, barnyardgrass; conditions: 0 to 100 scale; for Barnyardgrass plant response rating: 0 is no effect, 100 is complete control
How it was run: (§1)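 Seeds sown in loam–sand blend received a directed soil spray of test chemical in non-phytotoxic solvent with surfactant (preemergence); postemergence plants at 2–10 cm, one- to two-leaf stage, were sprayed with the same formulation. Injury rated visually versus untreated controls after ~10 d in greenhouse, 0–100 scale.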

kochia (Kochia scoparia) [2] = experiment: Test A preemergence, kochia; conditions: 0 to 100 scale; for Kochia plant response rating: 0 is no effect, 100 is complete control
How it was run: as §1

[3] = tested on: ragweed (common ragweed, Ambrosia elatior); experiment: Test A preemergence, ragweed; conditions: 0 to 100 scale; for Ragweed plant response rating: 0 is no effect, 100 is complete control
How it was run: as §1

[4] = tested on: ryegrass, Italian (Lolium multiflorum); experiment: Test A preemergence, Italian ryegrass; conditions: 0 to 100 scale; for Ryegrass, Italian plant response rating: 0 is no effect, 100 is complete control
How it was run: as §1

[5] = tested on: foxtail, giant (Setaria faberii); experiment: Test A preemergence, giant foxtail; conditions: 0 to 100 scale; for Foxtail, Giant plant response rating: 0 is no effect, 100 is complete control
How it was run: as §1

[6] = tested on: pigweed (Amaranthus retroflexus); experiment: Test A preemergence, pigweed; conditions: 0 to 100 scale; for Pigweed plant response rating: 0 is no effect, 100 is complete control
How it was run: as §1

[7] = tested on: barnyardgrass (Echinochloa crus-galli); experiment: Test A postemergence, barnyardgrass; conditions: 0 to 100 scale, 0 no effect, 100 complete control
How it was run: as §1

kochia (Kochia scoparia) [8] = experiment: Test A postemergence, kochia; conditions: 0 to 100 scale
How it was run: as §1

[9] = tested on: ragweed (common ragweed, Ambrosia elatior); experiment: Test A postemergence, ragweed; conditions: 0 to 100 scale
How it was run: as §1

[10] = tested on: ryegrass, Italian (Lolium multiflorum); experiment: Test A postemergence, Italian ryegrass; conditions: 0 to 100 scale
How it was run: as §1

[11] = tested on: foxtail, giant (Setaria faberii); experiment: Test A postemergence, giant foxtail; conditions: 0 to 100 scale
How it was run: as §1

[12] = tested on: pigweed (Amaranthus retroflexus); experiment: Test A postemergence, pigweed; conditions: 0 to 100 scale
How it was run: as §1

[13] = tested on: wheat (Triticum aestivum); experiment: Test A postemergence, wheat; conditions: 0 to 100 scale
How it was run: as §1

corn (Zea mays) = experiment: Test A postemergence, corn; conditions: 0 to 100 scale
How it was run: as §1

[14] = tested on: blackgrass (Alopecurus myosuroides); experiment: Test A postemergence, blackgrass; conditions: 0 to 100 scale
How it was run: as §1

[15] = tested on: galium (catchweed bedstraw, Galium aparine); experiment: Test A postemergence, galium; conditions: 0 to 100 scale
How it was run: as §1

rice (Oryza sativa) = experiment: Test B flooded paddy test, rice; conditions: Flood, 250 g ai/ha, applied to paddy water, 2-leaf stage, visual evaluation after 13 to 15 d
How it was run: (§2)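 Plants grown to 2-leaf stage. Compounds applied directly into paddy water flooded 3 cm above soil, with that depth kept throughout. After 13–15 d in greenhouse, visual rating versus controls on a 0–100 scale (0 no effect, 100 complete control).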

[16] = tested on: sedge, umbrella (small-flower umbrella sedge, Cyperus difformis); experiment: Test B flooded paddy test, umbrella sedge; conditions: Flood, 250 g ai/ha, applied to paddy water, 2-leaf stage, visual evaluation after 13 to 15 d
How it was run: as §2

[17] = tested on: ducksalad (Heteranthera limosa); experiment: Test B flooded paddy test, ducksalad; conditions: Flood, 250 g ai/ha, applied to paddy water, 2-leaf stage, visual evaluation after 13 to 15 d
How it was run: as §2

[18] = tested on: barnyardgrass (Echinochloa crus-galli); experiment: Test B flooded paddy test, barnyardgrass; conditions: Flood, 250 g ai/ha, applied to paddy water, 2-leaf stage, visual evaluation after 13 to 15 d
How it was run: as §2

[19] = 125 g ai/ha, 0 no effect, 100 complete control
[20] = 500 g ai/ha, 0 no effect, 100 complete control
[21] = 31 g ai/ha, 0 no effect, 100 complete control

Cc1ccc2c(C(C)Nc3ncc(C(F)(F)F)c(N)n3)coc2c1 (centres unmarked) [Compound 85]
85: Plant response rating, Sedge, Umbrella (0 to 100 scale, 0 is no effect, 100 is complete control) [16]
50: Ryegrass, Italian plant response rating ([4]; 500 g ai/ha) | Plant response rating, Barnyardgrass ([7]; 125 g ai/ha) | Plant response rating, Ragweed [9, 19] | Plant response rating, Ryegrass, Italian [10, 19] | Plant response rating, Blackgrass [14, 20]
30: Kochia plant response rating (kochia (Kochia scoparia) [2]; 125 g ai/ha) | Plant response rating, Wheat [13, 19] | Plant response rating, Wheat [13, 20] | Plant response rating, Ducksalad (0 to 100 scale, 0 is no effect, 100 is complete control) [17]
10: Plant response rating, Pigweed [12, 20] | Plant response rating, Corn (corn (Zea mays); [19])
70: Barnyardgrass plant response rating ([1]; 125 g ai/ha) | Foxtail, Giant plant response rating ([5]; 125 g ai/ha) | Plant response rating, Kochia (kochia (Kochia scoparia) [8]; [19])
60: Plant response rating, Ryegrass, Italian [10, 20]
80: Plant response rating, Barnyardgrass ([7]; 500 g ai/ha) | Plant response rating, Galium [15, 19]
40: Ryegrass, Italian plant response rating ([4]; 125 g ai/ha) | Plant response rating, Foxtail, Giant [11, 19] | Plant response rating, Corn (corn (Zea mays); [20]) | Plant response rating, Blackgrass [14, 19]
100: Barnyardgrass plant response rating ([1]; 500 g ai/ha) | Ragweed plant response rating ([3]; 500 g ai/ha) | Foxtail, Giant plant response rating ([5]; 500 g ai/ha) | Pigweed plant response rating ([6]; 125 g ai/ha) | Pigweed plant response rating ([6]; 500 g ai/ha)
0: Plant response rating, Rice (0 to 100 scale, 0 is no effect, 100 is complete control) (rice (Oryza sativa)) | Plant response rating, Barnyardgrass (0 to 100 scale, 0 is no effect, 100 is complete control) [18]
90: Kochia plant response rating (kochia (Kochia scoparia) [2]; 500 g ai/ha) | Ragweed plant response rating ([3]; 125 g ai/ha) | Plant response rating, Kochia (kochia (Kochia scoparia) [8]; [20]) | Plant response rating, Ragweed [9, 20] | Plant response rating, Foxtail, Giant [11, 20] | Plant response rating, Pigweed [12, 19] | Plant response rating, Galium [15, 20]

CC(Nc1ncc(C(F)(F)F)c(N)n1)c1cc2ccc(Cl)cc2s1 (racemic) [Compound 70]
40: Kochia plant response rating (kochia (Kochia scoparia) [2]; 500 g ai/ha)
20: Ragweed plant response rating ([3]; 125 g ai/ha) | Plant response rating, Barnyardgrass ([7]; 125 g ai/ha)
50: Foxtail, Giant plant response rating ([5]; 500 g ai/ha) | Plant response rating, Kochia (kochia (Kochia scoparia) [8]; [19]) | Plant response rating, Ragweed [9, 20]
60: Plant response rating, Foxtail, Giant [11, 20]
30: Barnyardgrass plant response rating ([1]; 500 g ai/ha) | Pigweed plant response rating ([6]; 125 g ai/ha) | Plant response rating, Blackgrass [14, 20]
80: Plant response rating, Kochia (kochia (Kochia scoparia) [8]; [20]) | Plant response rating, Galium [15, 20]
90: Ragweed plant response rating ([3]; 500 g ai/ha) | Pigweed plant response rating ([6]; 500 g ai/ha)
100: Plant response rating, Pigweed [12, 19] | Plant response rating, Pigweed [12, 20]
70: Plant response rating, Barnyardgrass ([7]; 500 g ai/ha)
0: Barnyardgrass plant response rating ([1]; 125 g ai/ha) | Kochia plant response rating (kochia (Kochia scoparia) [2]; 125 g ai/ha) | Ryegrass, Italian plant response rating ([4]; 125 g ai/ha) | Ryegrass, Italian plant response rating ([4]; 500 g ai/ha) | Foxtail, Giant plant response rating ([5]; 125 g ai/ha) | Plant response rating, Ragweed [9, 19] | Plant response rating, Ryegrass, Italian [10, 19] | Plant response rating, Ryegrass, Italian [10, 20] | Plant response rating, Foxtail, Giant [11, 19] | Plant response rating, Wheat [13, 19] | Plant response rating, Wheat [13, 20] | Plant response rating, Corn (corn (Zea mays); [19]) | Plant response rating, Corn (corn (Zea mays); [20]) | Plant response rating, Blackgrass [14, 19] | Plant response rating, Galium [15, 19] | Plant response rating, Rice (0 to 100 scale, 0 is no effect, 100 is complete control) (rice (Oryza sativa)) | Plant response rating, Sedge, Umbrella (0 to 100 scale, 0 is no effect, 100 is complete control) [16] | Plant response rating, Ducksalad (0 to 100 scale, 0 is no effect, 100 is complete control) [17] | Plant response rating, Barnyardgrass (0 to 100 scale, 0 is no effect, 100 is complete control) [18]

CC[C@@H](Nc1ncc(C(F)(F)F)c(N)n1)c1cc2ccccc2o1 [Compound 21]
70: Plant response rating, Foxtail, Giant ([11]; 1000 g ai/ha)
80: Plant response rating, Kochia (kochia (Kochia scoparia) [2]; 1000 g ai/ha) | Plant response rating, Ryegrass, Italian ([4]; 1000 g ai/ha) | Plant response rating, Barnyardgrass ([7]; 1000 g ai/ha) | Plant response rating, Ragweed ([9]; 1000 g ai/ha) | Plant response rating, Blackgrass ([14]; 1000 g ai/ha) | Plant response rating, Galium ([15]; 1000 g ai/ha)
100: Plant response rating, Barnyardgrass ([1]; 1000 g ai/ha) | Plant response rating, Ragweed ([3]; 1000 g ai/ha) | Plant response rating, Foxtail, Giant ([5]; 1000 g ai/ha) | Plant response rating, Pigweed ([6]; 1000 g ai/ha) | Plant response rating, Pigweed ([12]; 1000 g ai/ha) | Plant response rating, Corn (corn (Zea mays); 1000 g ai/ha)
0: Plant response rating, Wheat ([13]; 1000 g ai/ha) | Plant response rating, Rice (0 to 100 scale, 0 is no effect, 100 is complete control) (rice (Oryza sativa)) | Plant response rating, Barnyardgrass (0 to 100 scale, 0 is no effect, 100 is complete control) [18]
90: Plant response rating, Kochia (kochia (Kochia scoparia) [8]; 1000 g ai/ha)
65: Plant response rating, Sedge, Umbrella (0 to 100 scale, 0 is no effect, 100 is complete control) [16]
50: Plant response rating, Ryegrass, Italian ([10]; 1000 g ai/ha)
60: Plant response rating, Ducksalad (0 to 100 scale, 0 is no effect, 100 is complete control) [17]

C[C@@H](Nc1ncc(C(F)(F)F)c(N)n1)c1cc2c(F)ccc(F)c2s1 [Compound 114]
50: Ryegrass, Italian plant response rating ([4]; 125 g ai/ha) | Pigweed plant response rating ([6]; 31 g ai/ha) | Plant response rating, Kochia (kochia (Kochia scoparia) [8]; [21])
20: Plant response rating, Rice (0 to 100 scale, 0 is no effect, 100 is complete control) (rice (Oryza sativa))
60: Kochia plant response rating (kochia (Kochia scoparia) [2]; 125 g ai/ha) | Ragweed plant response rating ([3]; 125 g ai/ha) | Plant response rating, Galium [15, 21]
70: Foxtail, Giant plant response rating ([5]; 125 g ai/ha)
30: Kochia plant response rating (kochia (Kochia scoparia) [2]; 31 g ai/ha) | Ryegrass, Italian plant response rating ([4]; 31 g ai/ha) | Plant response rating, Barnyardgrass ([7]; 125 g ai/ha) | Plant response rating, Wheat [13, 19] | Plant response rating, Corn (corn (Zea mays); [19]) | Plant response rating, Blackgrass [14, 19]
40: Barnyardgrass plant response rating ([1]; 125 g ai/ha) | Ragweed plant response rating ([3]; 31 g ai/ha) | Plant response rating, Ragweed [9, 21] | Plant response rating, Ryegrass, Italian [10, 19]
100: Pigweed plant response rating ([6]; 125 g ai/ha) | Plant response rating, Foxtail, Giant [11, 19] | Plant response rating, Pigweed [12, 21] | Plant response rating, Pigweed [12, 19]
65: Plant response rating, Ducksalad (0 to 100 scale, 0 is no effect, 100 is complete control) [17] | Plant response rating, Barnyardgrass (0 to 100 scale, 0 is no effect, 100 is complete control) [18]
90: Plant response rating, Galium [15, 19]
10: Foxtail, Giant plant response rating ([5]; 31 g ai/ha) | Plant response rating, Barnyardgrass ([7]; 31 g ai/ha) | Plant response rating, Foxtail, Giant [11, 21] | Plant response rating, Corn (corn (Zea mays); [21])
80: Plant response rating, Kochia (kochia (Kochia scoparia) [8]; [19]) | Plant response rating, Ragweed [9, 19] | Plant response rating, Sedge, Umbrella (0 to 100 scale, 0 is no effect, 100 is complete control) [16]
0: Barnyardgrass plant response rating ([1]; 31 g ai/ha) | Plant response rating, Ryegrass, Italian [10, 21] | Plant response rating, Wheat [13, 21] | Plant response rating, Blackgrass [14, 21]
